Experimental data reported in patent US6709679B2, “Antineoplastic conjugates of transferin, albumin and polyethylene glycol” (priority 1996, dated 2004).

System: mammary carcinoma MCF-7
Assay: xeno-transplantable naked-mouse model, mammary carcinoma MCF-7 s.c.
Type: in vivo, mice (Ncr:nu/nu female)
Experimental: The dose refers to the amount of doxorubicin available. […] In the case of the highest dose employed in the experiment (12 mg/kg), there appears a very high lethalness (5 of 7 and 7 of 7 animals, respectively) in the therapy with doxorubicin.

## COc1cccc2c1C(=O)c1c(O)c3c(c(O)c1C2=O)C[C@@](O)(C(=O)CO)C[C@@H]3O[C@H]1C[C@H](N)[C@H](O)[C@H](C)O1 [doxorubicin]
Dose 4 mg/kg/inj. i.v. day 16 and 23
  optimum TIC (%): 61%
Dose 8 mg/kg/inj. i.v. day 16 and 23
  optimum TIC (%): 39%
Dose 8 mg/kg/inj. i.v. day 16 and 23, number of deaths (day), 8 mice
  mortality (d): 1 (26)
Dose 12 mg/kg/inj. i.v. day 16 and 23, number of deaths (days), 7 mice
  mortality (d): 7 (25-33)
